Entries after “also recorded” stand apart in the source; their conditions may differ.
Legend:
mouse podocytes = test: MTT cell proliferation assay, mouse podocytes; assay type: cell-based; settings: at higher concentrations of ATRA than required with rat podocytes
Description: (§1) Experiments were also performed on podocytes derived from C57/bl mice. Glomeruli were sieved and prepared as previously described. […] 61:40-50. Podocytes were grown on collagen 1 coated plates with MGEC-media containing 5% fetal bovine serum (FBS: Summit biotechnology, Ft. Collins, Colo., USA), penicillin (100 U/ml), streptomycin (100 μg/ml), and glutamine (2 mmol/L; all Irvine Scientific, Santa Ana, Calif., USA) at 37° C. in 95% air/5% CO2. Podocytes were identified by previously described criteria (Shankland et al. (1999) supra) and by confirming the presence of podocyte specific proteins—including WT-1, nephrin, podocin, and ezrin—by immunostaining.
(§2) Exposure ofpodocvtes to ATRA. Rat podocytes, mouse podocytes, and growth permissive HSMP were plated at a concentration of 15,000 cell/cm^2 in standard media and allowed to adhere overnight.

[1] = system: heat sensitive mouse podocytes; test: MTT cell proliferation assay, heat sensitive mouse podocytes (HSMP), growth permissive; assay type: cell-based; settings: heat sensitive mouse podocytes under growth permissive conditions; at higher concentrations than rat podocytes
Description: as §2

cultured rat podocytes = test: Cell morphology by scanning electron microscopy, cultured rat podocytes; assay type: cell-based
Description: as §2
Cell morphology was carefully examined under light microscopy on an inverted scope. Cellular morphology was also examined by scanning electron microscopy on adherent cells fixed in half-strength Karnovsky's solution.

primary mouse podocytes = test: Western blot analysis of nephrin and podocin, primary mouse podocytes; assay type: cell-based; settings: primary mouse cultures, FIG. 2
Description: as §1, §2

normal mice = test: Pilot study of adverse side effects in normal mice; assay type: in vivo, mouse; settings: 16 mg/kg i.p. for 7 days
Description: Pilot studies were performed to determine if giving ATRA 16 mg/kg i.p. for 7 days caused adverse side effects in normal mice. […] To determine the effect of ATRA on podocytes in vivo, mice with experimental glomerular disease were given ATRA intraperitoneally (i.p.) on two consecutive days. […] Renal function was assessed by measuring proteinuria and BUN.

[2] = system: C57BL6 mice with anti-glomerular antibody-mediated podocyte injury; test: Anti-glomerular antibody model of podocyte injury: immunostaining of kidney tissue; assay type: in vivo, mouse; settings: for PCNA staining (podocyte proliferation) vs control: FIG. 4; for WT-1 staining (podocyte number) vs control: P<0.001, FIG. 5
Description: Immunofluorescent staining of kidney tissue. Mouse kidney biopsies were fixed in methyl Carnoy's (MC) solution or snap frozen in liquid nitrogen for analysis of proliferating cell nuclear antigen (PCNA), WT-1, podocin, synaptopodin, podocalyxin, and nephrin in vivo following ATRA treatment in anti-glomerular disease. Sections (4 μm) were cut from paraffin embedded MC fixed tissue or from OCT embedded frozen tissue. Frozen sections were then fixed in 100% methanol at −20° C. Mouse monoclonal antibody to PCNA (Beckman Coulter Miami, Fla., USA) or rabbit polyclonal antibody to WT-1 were incubated on MC-fixed tissue, and rabbit polyclonal antibodies to podocin, nephrin, podocalyxin, and synaptopodin were incubated on frozen sections. Primary mouse antibody to PCNA was incubated with a peroxidase conjugated rat anti-mouse IgM antibody (Zymed Laboratories, Inc. So. San Francisco, Calif., USA); all other primary antibodies were incubated with biotinylayted goat anti-rabbit antibody followed by either avidin D conjugated horseradish peroxidase (WT-1) or avidin conjugated AlexaFluor. PCNA and WT-1 stains were visualized with diaminobenzidine (Sigma Chemicals, St. Louis, Mo., USA).
An antibody-mediated model of podocyte injury was induced in C57BL6 mice with a sheep anti-glomerular antibody (two doses of 0.3 ml/20 gm body weight) over two consecutive days. Kim et al. (1999) Kidney Int 55:2349-2361; and Ophascharoensuk et al. (1998) Kidney Int 54:416-425. After the induction of the anti-glomerular model, but before the development of proteinuria, mice were then divided into an experimental group that received daily injections of ATRA 16.6 mg/kg (IP), and a control group that received vehicle (corn oil). […] The podocyte specific proteins WT-1, nephrin, podocin, synaptopodin, were measured by immunostaining at each time point, as was the proliferation marker, PCNA (see above). Using proliferating cell nuclear antigen (PCNA) as a marker of proliferation and WT-1 as a marker for podocytes, the level of podocyte proliferation was determined.

transgenic podocytes [3] = test: Direct visualization (sequential photographs) of plated podocytes; assay type: cell-based, mouse; settings: addition of ATRA
Description: Cellular proliferation was also assessed through direct visualization of 10 cm plated cells at d 1, 2, 4, 6 and 8 growth restriction. Proliferation was assessed by the number of cells seen within a small circle marked on the plate. A total of four circles were marked and observed per plate. The circles were numbered #1-4 and photographed at the above time points. One exemplary circle was chosen per plate and followed through all time points. The four groups were compared at all time points.

rat podocytes [4] = test: MTT cell proliferation assay, rat podocytes
[5] = system: Tg-26 HIV transgenic heterozygous mice; test: Tg-26 HIV transgenic mice (HIV-associated nephropathy) in vivo
rat podocytes [6] = test: Immunofluorescent staining of cultured rat podocytes (nephrin, podocin)
transgenic podocytes [7] = test: Immunostaining of HIV transgenic podocytes for podocyte and cell cycle proteins
[8] = nephritic mice, days 5 and 14 after disease induction, vs control nephritic mice given vehicle
[9] = nephritic mice, vs control nephritic animals given vehicle
[10] = ATRA treated Tg mice (5 animals)
[11] = transgenic podocytes, day 7 of growth restriction

SMILES: CC1=C(/C=C/C(C)=C/C=C/C(C)=C/C(=O)O)C(C)(C)CCC1 [ATRA, all-trans retinoic acid]
- MTT absorbance (mouse podocytes): significantly reduced MTT absorbance
- MTT absorbance [1]: significantly reduced MTT absorbance
- process formation (scanning electron microscopy) (cultured rat podocytes; 1 μM ATRA): resulted in the presence of processes
- process formation (scanning electron microscopy) (cultured rat podocytes; Ten 1 μM ATRA): marked increase in the number and length of processes
- nephrin protein level (Western blot) (primary mouse podocytes; 1 μM ATRA): increased the protein levels
- podocin protein level (Western blot) (primary mouse podocytes; 1 μM ATRA): increased the protein levels
- nephrin protein level (Western blot) (primary mouse podocytes; 5 μM ATRA): increased the protein levels
- podocin protein level (Western blot) (primary mouse podocytes; 5 μM ATRA): increased the protein levels
- adverse side effects (normal mice): no weight loss, ruffled fur, withdrawal or diarrhea
- number of cells that stained positive for PCNA vs normal ([2]; experimental (ATRA treated) mice, day 5, P<0.05 vs normal, FIG. 4 legend): increased
- PCNA staining (podocyte proliferation) vs control ([2]; nephritic mice, day 7): did not have a statistically significant effect
- WT-1 staining (podocyte number) vs control ([2]; nephritic mice, day 7): prevented the decrease in WT-1 staining; also recorded: prevented the decrease in podocyte number
- PCNA staining (podocyte proliferation) vs control ([2]; nephritic mice, day 14): significantly reduced podocyte proliferation; also recorded: significantly reduced PCNA immunostaining
- WT-1 staining (podocyte number) vs control ([2]; nephritic mice, day 14): prevented the decrease in WT-1 staining; also recorded: prevented the decrease in podocyte number
- nephrin immunostaining in kidney [2, 8]: prevented the decrease in immunostaining
- podocin immunostaining in kidney [2, 8]: prevented the decrease in immunostaining
- synaptopodin immunostaining in kidney [2, 8]: prevented the decrease in immunostaining
- CD2AP immunostaining in kidney [2, 9]: not different from control nephritic animals
- p35 immunostaining in kidney [2, 9]: not different from control nephritic animals
- proliferation of transgenic podocytes (sequential photographs, 10 cm culture dishes) (transgenic podocytes [3]): attenuated
- rat podocyte proliferation (viable cell number by MTT assay) (rat podocytes [4]; 1 μM, 5 μM, 10 μM, 50 μM, 200 μM ATRA, FIG. 1): reduced rat podocyte proliferation in a concentration-dependent fashion
- MTT absorbance compared to control cells (rat podocytes [4]; rat podocytes, beginning at one μM, P<0.001): significantly reduced MTT absorbance
- collapsed glomeruli [5, 10]: no collapsed glomeruli
- glomeruli with 0-25% sclerosis [5, 10]: 4.8%
- glomeruli with 25-50 sclerosis [5, 10]: 1.2%
- glomeruli with 50-75% or 75-100% sclerosis [5, 10]: No glomeruli were seen
- glomeruli with no sclerosis ([5]; ATRA treated Tg mice (5 animals), 50 glomeruli per tissue sample): 94%
- segmental sclerosis vs carrier treated transgenic animals ([5]; Tg mice, 4 months of life): reduced the sclerosis by a statistically significant amount
- serum BUN ([5]; the different groups): no significant difference
- proteinuria vs carrier treated transgenic animals (Tg C) ([5]; transgenic mice, ATRA 16 mg/kg intraperitoneal three times a week): tended to have less proteinuria
- significance of difference in proteinuria vs carrier treated animals ([5]; transgenic mice, all other time points): not significant
- significance of difference in proteinuria vs carrier treated animals ([5]; transgenic mice, at 80 days): statistically significant
- interstitial disease score (tubular dilatation) ([5]; two ATRA treated Tg animals): no tubular dilatation
- podocin immunostaining compared to control (rat podocytes [6]; cultured rat podocytes, OptM ATRA): increased immunostaining
- nephrin immunostaining compared to control cells exposed to vehicle (rat podocytes [6]; undifferentiated and proliferating rat podocytes, 10 μM ATRA): nephrin immunostaining increased
- cyclin A staining vs standard media (transgenic podocytes [7]; ATRA exposed group): decreased intensity of staining
- cell number vs standard media (transgenic podocytes [7]; ATRA group, cyclin A staining): grossly decreased
- WT-1 staining vs standard media (transgenic podocytes [7]; [11]): increased staining intensity
- cd2ap staining vs transgenic podocytes in standard media (transgenic podocytes [7]; [11]): increased intensity of staining
- cell size and cell number vs standard media (transgenic podocytes [7]; [11]): appeared larger and decreased in number; also recorded: increased cell size and decreased cell number
- CD2AP staining vs standard media group (transgenic podocytes [7]; transgenic podocytes, day 14 of growth restriction): increased staining intensity
- decrease in cell number (transgenic podocytes [7]; transgenic podocytes, day 14 time point): not as prominent

Reference: patent US20050112123A1, “Methods of treating proteinuria” (priority 2003, published 2005)
